The subject of this experiment is ProcM. The experiment in a line: ProcM reactions with other. To be noted: preliminary; data not shown. It counts as biochemical, Prochlorococcus MIT9313.

On to “ProcA4.3: ProcA substrate (TASGGCDTSMFCY; UniProt Q7V735 65-77, looked up)”, for which the cyclization kinetics result is reported as “some thioether rings form quickly, while others require a much longer time”.

(Values after PMC4277782 (Journal of the American Chemical Society, 2014).)
